Data published in patent US7750036B2 (SB Pharmco Puerto Rico Inc., priority 2004, dated 2010).
≈ marks a conversion by molar mass, not a printed value. Where two headings read alike, the source gives them in different places.

Legend:
[1] = cited from earlier work
[2] = physchem; conditions: pH 7.1, aqueous buffer

COc1ccccc1OCCNCC(O)COc1cccc2[nH]c3ccccc3c12 (racemic) [Carvedilol]
solubility ([1]; above a pH of 9.0): < 1 µg/mL | saturation solubility ([1]; pH=5, room temperature): about 100 μg/mL | saturation solubility ([1]; pH=7, room temperature): about 23 μg/mL | solubility [2]: 20 to 30 µg/mL (≈ 49.2 to 73.8 µM)

COc1ccccc1OCCNCC(O)COc1cccc2[nH]c3ccccc3c12.Cl (centres unmarked) [hydrochloride salt of carvedilol]
solubility of salt generated in situ ([1]; acidic medium which simulates gastric fluid): less soluble
